Reference: patent publication US20180326021A1, “Methods and Compositions for the Treatment of Cytoplasmic Glycogen Storage Disorders” (Duke University, priority 2015, published 2018)
Values joined by “and” are separate entries in the source; they are usually repeats but may differ in a detail not shown here. Equal values may be shown once. “Also recorded” adds a separate entry of the source.

Key:
GSD IV mice = test: Short-term rhGAA enzyme replacement therapy in GSD IV mice; format: in vivo, mouse
Experimental: (§1) Methods: A short-term study was conducted to determine the minimum effective dose (MED) of rhGAA treatment with 3 dosages: 20 mg/kg (human equivalent dose, n=6), 40 mg/kg (n=9), and 100 mg/kg (n=8). Male GSD IV mice received weekly intravenous injections of rhGAA were conducted for 4 week starting at age of 10 weeks. A group of age-matched untreated mice (n=8) were used as controls. To prevent anaphylactic reactions, the animals were administered 25 mg/kg diphenhydramine (i.p.) 10-15 min prior to enzyme administration. All mice were sacrificed 48 hours after the last injection following overnight fasting. Fresh tissues were immediately frozen and stored at −80° C. until use for GAA activity and glycogen content analyses. Protein concentration was measured using BCA method.

[1] = test system: patient with PRKAG2 pathogenic gene mutation; test: Alglucosidase alfa ERT in a patient with PRKAG2 mutation (case report); format: in vivo, human; details: for overall clinical response (neurological, occupational and physical therapy reports): after reinitiation of ERT
Description: A patient was born by caesarian section at 38 weeks gestation as a result of the nuchal cord being wrapped around their neck. The patient was noted to have hypotonia and generalized muscle weakness. They were areflexic and had feeding difficulties. The patient began developing severe lower respiratory infections which led to frequent admissions to the hospital. […] Following numerous recurrent pneumonias, and the history of muscle weakness, the patient's physicians raised Pompe disease as a potential diagnosis. […] Given the early findings of hypotonia and the low GAA enzyme activity, a diagnosis of non-classic infantile Pompe disease was made. The patient was initiated on ERT with alglucosdase alfa at a dose of 20 mg/kg every 2 weeks.
Baseline assessments were done which included tests for AST (44 IU/L; normal range: <45 IU/L), ALT (20 IU/L; normal range: 9-80 IU/L), along with PT measures looking at muscle strength and function measures. […] Upon examination, the patient has developed more defined calf muscles, along with an improvement of […] strength and power. […] has grown physically stronger and has not had episodes in which […] lacks energy for consecutive days, becomes completely floppy, and is unable to hold their head up properly following a seizure.
At baseline, according to the MABC assessment, the patient achieved a Total Test Score of 68 ranking them in the 25th percentile. Five months after reinitiation of ERT, the patient achieved a Total Test Score of 73 on […] MABC assessment, ranking them in the 37th percentile. A minimal detectable change (MDC) for the MABC has been reported as 1.21 points, representing a true change in motor function. The results in this child show an increase of 5 points over 5 months, which is greater than the minimal important difference (MID) of the MABC, which has been reported as a change of 2.5 points shown over 6 months.

[2] = test system: primary muscle cells from GSD IIIa patients; test: rhGAA treatment of cultured primary muscle cells from GSD III patients; format: cell-based, human; details: normal and GSD III patient primary muscle cells, rhGAA added to culture
Experimental: FIG. 2 illustrates an analysis of the skeletal muscle biopsies from two GSD Ma patients, a person (Pt. 1) and a person (Pt. 2). […] (B) Under EM, occasional lysosomal glycogen (arrow) was also seen in the myocytes (scale bar=1 μm). […] (E) GAA activity in normal and patient cells 48 h after adding recombinant human acid alpha-glucosidase (rhGAA, Myozyme, alglucosidase alfa) treatment. […] Mean±standard deviation is shown in C—F (n=4). The significance of differences between two different groups was assessed using the two-tailed, equal variance student T-test ([…]).

GSD III mice = test: Short-term rhGAA enzyme replacement therapy in GSD III mice; format: in vivo, mouse
Experimental: as §1, with “GSD III mice were used to test 3 dosages” for “A short-term study was conducted”, “treatment:” for “treatment with 3 dosages:”, “(n=6),” for “(human equivalent dose, n=6),”, “(n=5),” for “(n=9),”, “(n=7). Weekly” for “(n=8). Male GSD IV mice received weekly”, “10 -15” for “10-15”

[3] = test system: primary GSD IV mouse muscle cells; test: rhGAA treatment of cultured primary myoblasts from GSD IV mice; format: cell-based
Experimental: Primary myoblast cells were isolated from 7-day-old GSD IV mouse skeletal muscle. Early passage cells were seeded in 10-cm culture dishes with EMEM medium containing 10% FBS. When cells reached 90% confluence, rhGAA was added to the culture medium (final activity =1000 nmol/hr/ml). The cells were harvested 24 hours later to analyze glycogen content and GAA activity.
Reduction of glycogen deposition in GSD IV mouse myoblasts by rhGAA treatment was also confirmed by immunofluorescence staining using a mouse anti-glycogen monoclonal antibody ESG1A9mAb.

[4] = 20 mg/kg weekly i.v. for 4 weeks
[5] = 40 mg and 100 mg rhGAA treatment
[6] = 40 mg/kg weekly i.v. for 4 weeks
[7] = weekly rhGAA for 4 weeks at 20, 40 or 100 mg/kg, data not shown
[8] = over 5 months on ERT vs pre-ERT baseline
[9] = reassessment, 5 months post ERT
[10] = rhGAA 1000 nmol/hr/ml in medium, cells harvested 24 hours later

recombinant human acid alpha-glucosidase [rhGAA]
glycogen in any tissue (GSD IV mice; 20 mg/kg): failed to reduce glycogen in any tissue
reduction of glycogen accumulation in liver (GSD IV mice; 20 mg/kg): not significant
GAA activity in heart, increase (GSD IV mice; [4]): 1.7 fold
GAA activity in liver, increase over untreated controls (GSD IV mice; [4]): 29 fold
liver glycogen decrease (GSD IV mice; [5]): 21-25%
GAA activity in heart, increase (GSD IV mice; [6]): 2.8 fold
glycogen content in liver, change (GSD IV mice; [6]): −21%
plasma alanine aminotransferase (ALT) (GSD IV mice; 40 mg/kg, p<0.01 vs untreated): 650±32 U/L
liver/body weight ratio (GSD IV mice; 40 mg/kg, p<0.05 vs untreated): 5.0±0.2%
plasma aspartate aminotransferase (AST) (GSD IV mice; 40 mg/kg, p=0.074 vs untreated): 849±50 U/L
GAA activity in skeletal muscles, increase (GSD IV mice; 100 mg/kg): 1.6 fold
glycogen content in liver, change (GSD IV mice; 100 mg/kg weekly i.v. for 4 weeks): −25%
GAA activity in tissues (GSD IV mice; 20, 40, 100 mg/kg, dose dependent): significant increase
GAA activity in quadriceps, increase (GSD IV mice; at either dosage (20 or 40 mg/kg)): negligible
GAA activity in gastrocnemius, increase (GSD IV mice; either treated group (20 or 40 mg/kg)): less than 1 fold
anti-GAA antibodies generated, compared with that reported in GAA-KO mice (GSD IV mice; [7]): significantly less
visual motor, fine motor, and gross motor skills (M-FUN) ([1]; after five months of ERT): improvement
overall clinical response (neurological, occupational and physical therapy reports) ([1]; listed as ERT): a clinical benefit was noted; also recorded: significant positive response
overall clinical response (neurological, occupational and physical therapy reports) ([1]; listed as alglucosidase alfa): significant improvement; also recorded: significant musculoskeletal improvements
fatigue on reassessment ([1]; five months of ERT, listed as ERT): less fatigue
Movement ABC percentile increase [1, 8]: 12
Movement ABC score increase [1, 8]: 5 points
Movement ABC Total Test Score ([1]; re-assessment, 5 months after reinitiation of ERT): 73
Movement ABC percentile ([1]; re-assessment, 5 months after reinitiation of ERT, listed as ERT): 37 percentile and 37th percentile
M-FUN Fine Motor Progress Score [1, 9]: 394
M-FUN Fine Motor Scaled Score [1, 9]: 5 (considered mild/
M-FUN Fine Motor assessment notes [1, 9]: Patient's scaled scores show a fine motor improvement
M-FUN Gross Motor Progress Score [1, 9]: 407
M-FUN Gross Motor Scaled Score [1, 9]: 3 (considered very
M-FUN Gross Motor reassessment notes [1, 9]: gaining new motor skills and is improving in their current
M-FUN Visual Motor Progress Score [1, 9]: 496
M-FUN Visual Motor Scaled Score [1, 9]: 9 (considered “average” or
M-FUN Visual Motor assessment notes [1, 9]: Patient's scaled scores show a visual motor improvement
seizures ([1]; since reinitiation of ERT): better controlled
gross motor abilities assessed by physical therapist ([1]; three months after first initiation of ERT, 20 mg/kg every 2 weeks): began improving
glycogen concentration [2]: significantly reduced
liver glycogen decrease (GSD III mice; [5]): 24-25%
glycogen content in heart (GSD III mice; 40 mg and 100 mg treatments): significantly reduced
glycogen content in liver (GSD III mice; 40 mg and 100 mg treatments): significantly reduced
ratio of liver/body weight (GSD III mice; 40 mg and 100 mg treatments): reduced
glycogen content in any tissues (GSD III mice; 20-mg treatment): did not affect
glycogen content in skeletal muscles (GSD III mice; 40-mg and 100-mg treatment groups): no significant change
GAA enzyme uptake (GAA activity rank order of tissues) (GSD III mice; weekly i.v. for 4 weeks): liver>heart>diaphragm>leg muscles
plasma alanine aminotransferase (ALT) (GSD III mice; weekly rhGAA for 4 weeks): reduction
plasma alkaline phosphatase (ALP) (GSD III mice; weekly rhGAA for 4 weeks): reduction
plasma aspartate aminotransferase (AST) (GSD III mice; weekly rhGAA for 4 weeks): reduction
plasma creatine kinase (CK) (GSD III mice; weekly rhGAA for 4 weeks): reduction
anti-GAA antibodies generated, compared with that reported in GAA-KO mice (GSD III mice; [7]): significantly less
glycogen deposition (immunofluorescence staining) ([3]; 4 hours after rhGAA treatment): reduction of glycogen was obvious
glycogen deposition (immunofluorescence staining) ([3]; 24 hours after rhGAA treatment): became more evident
glycogen deposition (anti-glycogen antibody ESG1A9mAb staining) ([3]; immunofluorescence staining): reduced glycogen deposition
GAA activity increase [3, 10]: 50%
glycogen content decrease [3, 10]: 24%
glycogen content ([3]; rhGAA treated vs untreated cells): significantly (p<0.01) reduced
